Structures are written as SMILES. Where a name gives a salt, the structure may show the parent alone. A value given as a limit tells only on which side of the number the result lay.

This assay deals with LPS induced IL-6 secretion from whole blood. Nature of the assay: Measurement of LPS Induced IL-6 Secretion from Whole Blood. It counts as cell-based. Particulars: LPS 200 ng/ml, 24 hours, immunoassay, read-out: pIC50 (IL-6 levels) (converted). On the procedure:
Activation of monocytic cells by agonists of toll-like receptors such as bacterial lipopolysaccharide (LPS) results in production of key inflammatory mediators including IL-6. Such pathways are widely considered to be central to the pathophysiology of a range of auto-immune and inflammatory disorders.
After further incubation for 24 hours at 37 degrees, 140 ul of PBS are added to each well. The plates are sealed, shaken for 10 minutes and then centrifuged (2500 rpm×10 min). 100 ul of the supernatant are removed and IL-6 levels assayed by immunoassay (typically by MesoScale Discovery technology) either immediately or following storage at −20 degrees.
As for `COc1ccc2c(c1)C(c1ccc(Cl)cc1)=NC(CC(=O)NCCc1ccccc1)c1nnc(C)n1-2` (centres unmarked) [Example 2, 2-[6-(4-chlorophenyl)-1-methyl-8-(methyloxy)-4H-[1,2,4]triazolo[4,3-a][1,4]benzodiazepin-4-yl]-N-(2-phenylethyl)acetamide], the IC50 is no more than 10 µM.
In the case of `COc1ccc2c(c1)C(c1ccc(Cl)cc1)=NC(CC(=O)N1CCCCC1)c1nnc(C)n1-2` (centres unmarked) [Example 3, 6-(4-chlorophenyl)-1-methyl-8-(methyloxy)-4-[2-oxo-2-(1-piperidinyl)ethyl]-4H-[1,2,4]triazolo[4,3-a][1,4]benzodiazepine] it was no more than 10 µM; in that of `COc1ccc2c(c1)C(c1ccc(Cl)cc1)=NC(CC(=O)NCc1ccco1)c1nnc(C)n1-2` (centres unmarked) [Example 4, 2-[6-(4-chlorophenyl)-1-methyl-8-(methyloxy)-4H-[1,2,4]triazolo[4,3-a][1,4]benzodiazepin-4-yl]-N-(2-furanylmethyl)acetamide], no more than 10 µM.
As for `COc1ccc2c(c1)C(c1ccc(Cl)cc1)=N[C@@H](CC(=O)Nc1ccc(F)cc1)c1nnc(C)n1-2` [Example 11, 2-[(4S)-6-(4-chlorophenyl)-1-methyl-8-(methyloxy)-4H-[1,2,4]triazolo[4,3-a][1,4]benzodiazepin-4-yl]-N-(4-fluorophenyl)acetamide], the figure is no more than 10 µM; as for `COc1ccc2c(c1)C(c1ccc(Cl)cc1)=N[C@@H](CC(=O)Nc1cccnc1)c1nnc(C)n1-2` [Example 13, 2-[(4S)-6-(4-chlorophenyl)-1-methyl-8-(methyloxy)-4H-[1,2,4]triazolo[4,3-a][1,4]benzodiazepin-4-yl]-N-3-pyridinylacetamide], no more than 10 µM; as for `COc1ccc2c(c1)C(c1ccc(Cl)cc1)=N[C@@H](CC(=O)N[C@@H](C)c1ccccc1)c1nnc(C)n1-2` [Example 17, 2-[(4S)-6-(4-chlorophenyl)-1-methyl-8-(methyloxy)-4H-[1,2,4]triazolo[4,3-a][1,4]benzodiazepin-4-yl]-N-[(1S)-1-phenylethyl]acetamide], no more than 10 µM.
As for `COc1ccc2c(c1)C(c1ccc(Cl)cc1)=NC(CC(=O)NCCN(C)C)c1nnc(C)n1-2` (centres unmarked) [Example 26, 2-[6-(4-chlorophenyl)-1-methyl-8-(methyloxy)-4H-[1,2,4]triazolo[4,3-a][1,4]benzodiazepin-4-yl]-N-[2-(dimethylamino)ethyl]acetamide], the figure is no more than 10 µM; as for `Cc1nnc2n1-c1ccc(OS(C)(=O)=O)cc1C(c1ccc(Cl)cc1)=N[C@H]2CC(=O)Nc1ccc(F)cc1` [Example 31, (4S)-6-(4-Chlorophenyl)-4-{2-[(4-fluorophenyl)amino]-2-oxoethyl}-1-methyl-4H-[1,2,4]triazolo[4,3-a][1,4]benzodiazepin-8-yl methanesulfonate], no more than 10 µM.
Consider `COC(=O)C[C@@H]1N=C(c2ccc(Cl)cc2)c2cc(OC)ccc2-n2c(C)nnc21` [Example 34, Methyl [(4S)-6-(4-chlorophenyl)-1-methyl-8-(methyloxy)-4H-[1,2,4]triazolo[4,3-a][1,4]benzodiazepin-4-yl]acetate], for which the IC50 was no more than 10 µM.
As for `CNCCNC(=O)C[C@@H]1N=C(c2ccc(Cl)cc2)c2cc(OC)ccc2-n2c(C)nnc21` [Example 38, 2-[(4S)-6-(4-Chlorophenyl)-1-methyl-8-(methyloxy)-4H-[1,2,4]triazolo[4,3-a][1,4]benzodiazepin-4-yl]-N-[2-(methylamino)ethyl]acetamide trifluoroacetic acid salt], the figure is no more than 10 µM.
As for `COc1ccc2c(c1)C(c1ccc(Cl)cc1)=N[C@@H](CC(=O)NC1CCNCC1)c1nnc(C)n1-2` [Example 39, 2-[(4S)-6-(4-Chlorophenyl)-1-methyl-8-(methyloxy)-4H-[1,2,4]triazolo[4,3-a][1,4]benzodiazepin-4-yl]-N-4-piperidinylacetamide trifluoroacetic acid salt], the figure is no more than 10 µM.

For the origin of these results see US9598420B2, “Benzodiazepine bromodomain inhibitor” (GlaxoSmithKline LLC, priority 2009, dated 2017).
